Legend:
[1] = biological target: human muscarinic M3 receptor (Homo sapiens, UniProt P20309); experiment: hM3 competition binding assay (3H-NMS) on CHO cell membranes; conditions: 24 hr at RT, IC50 corrected by Cheng-Prussoff equation
Method: Binding Affinity Assessment at the Human Recombinant M3 Muscarinic Receptor
Cell Pellets from CHO (Chinese Hamster Ovary) cells recombinantly expressing the human muscarinic M3 receptor were homogenised in 20 mM HEPES (pH7.4) and centrifuged at 48000×g for 20 min at 4° C. The pellet was re-suspended in buffer and the homogenisation and centrifugation steps repeated. The resulting pellet was re-suspended in 1 ml buffer per 1 ml original packed cell volume and the homogenisation step repeated. Protein estimation was carried out on the suspension and 1 ml aliquots of ˜1 mg/ml frozen at −80° C.
hM3 Competition Binding Assay Protocol
Membranes (5 μg/well) were incubated with ^3H-NMS (at a concentration 5×KD) plus/minus test compound for 24 hr at RT (room temperature) in a 1 ml polystyrene 96-well deep well block. The final assay volume was 200 μl, comprising of: 20 μl plus/minus test compound; 20 μt, ^3H-NMS (Perkin Elmer NEN 636) and 160 μl membrane solution. Total Binding was defined with 0.1% DMSO; Non-Specific Binding was defined with 1 μM Atropine. Assay buffer was 20 mM Hepes (pH 7.4).
Once all assay components were added, plates were covered and incubated at room temperature for 24 hrs with shaking. The assay was terminated by rapidly filtering through GF/B Unifilter plates pre-soaked with 0.5% polyethylenimine, using a Packard filtermate harvester, the filter plate was then washed with 3×1 ml 4° C. assay buffer. The filter plates were dried at 45° C. for 1 hour. The bottoms of the filter plates were sealed and 50 μl/well of Microscint ‘0’ added, the top of the plates were sealed with a Topseal. Following 90 mins, the plates were read on an NXT Topcount (1 minute read time per well).
The resulting data was expressed as a percentage of the specific binding (Specific binding=Total binding−Non-Specific Binding). % specific binding versus test compound concentration was plotted to determine an IC50 from a sigmoid curve using an in-house data analysis programme. IC50 values corrected to Ki values by applying the Cheng-Prussoff equation:
(§1) [formula] where IC50 is the concentration of unlabelled drug which inhibits by 50% the specific radioligand binding. [L] is the free radioligand concentrations and KD and Ki are the equilibrium dissociation constants of the radioligand and unlabelled drug respectively. Functional Assessment of Agonist Potency and Efficacy Using a Whole cell cAMP Assay in CHO Cells Expressing the hβ2 Receptor Cell Culture

[2] = biological target: human adrenergic β2 receptor (Homo sapiens, UniProt P07550); experiment: hβ2 cAMP assay: whole cell cAMP assay in CHO cells expressing the hβ2 receptor; format: cell-based; conditions: CHO cells recombinantly expressing human β2 receptor; for Emax: agonist efficacy, 100 nM Formoterol control; for EC50: agonist potency
Excerpt: as §1
CHO (Chinese Hamster Ovary) cells recombinantly expressing the human adrenergic β2 receptor were maintained in growth media composed of F12:DMEM (Gibco 21331-020) containing 10% Foetal Bovine Serum (FBS: Sigma F4135), 10 μg/ml puromycin (Sigma P8833), 0.1 mg/ml Geneticin G418 (Sigma G7034) and 2 mM L-glutamine (Sigma G7513). The cells were kept in sterile conditions at 37° C., in an atmosphere containing 5% CO2.
Cells were harvested for assay when they reached 80-90% confluency using trypsin 0.25% (Sigma T4049) incubated with the cells for 5 min at 37° C. in an atmosphere containing 5% CO2. Detached cells were collected in warmed growth media (composition described above), and re-suspended in assay media (F12:DMEM (Gibco 21331-020) containing 1% Foetal Bovine Serum (FBS: Sigma F4135) and 2 mM L-glutamine (Sigma G7513)) to give a viable cell concentration of 0.25×10^6 cells/ml. 100 μl of this suspension was added to each well of a tissue culture treated 96 well view-plate (PerkinElmer 6005181) and the plate incubated in an atmosphere containing 5% CO2 at 37° C. overnight. The following day, cells were washed (4×200 μl, Skatron Skanstacker 300) with Phosphate Buffered Saline (PBS). The plates were then pat dried and the media replaced with 50 μl PBS plus 0.5 mM isobutylmethylxanthine (IBMX) (Sigma I5879) before returning to the incubator for 30 mins. The PBS plate wash procedure was repeated, followed by the addition of 50 μl PBS plus 0.5 mM IBMX and 50 μl PBS plus 2% DMSO and the plates returned to the incubator for 30 mins. Concentration ranges of test compounds were prepared in PBS containing 2% DMSO. The PBS plate wash procedure was repeated, and then 50 μl PBS plus 0.5 mM IBMX was added to the assay plates, followed by the addition of 50 μl of each compound test concentration to the appropriate well. 50 μl per well of 2% DMSO or 200 nM Formoterol was added to the control wells, giving a final assay concentration of 1% DMSO or 100 nM Formoterol. Plates were returned to the incubator for a further 30 mins. At the end of the incubation period the PBS plate wash procedure was repeated a final time as described above. The plates were pat dried and 30 μl per well PBS added followed by 40 μl per well cAMP II ED/Substrate mix and 40 μl per well cAMP II EA-Ab/lysis mix (DiscoverX 90-0034-03). The plates were then incubated in the dark for a minimum of 4 hours at room temperature. The plates were read using a Fusion plate reader (luminescence protocol, each well read for 1 second). Concentration effect curves were plotted and EC50 & Emax values determined using a 4-parameter sigmoid fit generated using an in-house data analysis programme. Formoterol and salmeterol were run in every assay as reference standards.

Chain of human muscarinic M3 receptor (P20309 whole entry): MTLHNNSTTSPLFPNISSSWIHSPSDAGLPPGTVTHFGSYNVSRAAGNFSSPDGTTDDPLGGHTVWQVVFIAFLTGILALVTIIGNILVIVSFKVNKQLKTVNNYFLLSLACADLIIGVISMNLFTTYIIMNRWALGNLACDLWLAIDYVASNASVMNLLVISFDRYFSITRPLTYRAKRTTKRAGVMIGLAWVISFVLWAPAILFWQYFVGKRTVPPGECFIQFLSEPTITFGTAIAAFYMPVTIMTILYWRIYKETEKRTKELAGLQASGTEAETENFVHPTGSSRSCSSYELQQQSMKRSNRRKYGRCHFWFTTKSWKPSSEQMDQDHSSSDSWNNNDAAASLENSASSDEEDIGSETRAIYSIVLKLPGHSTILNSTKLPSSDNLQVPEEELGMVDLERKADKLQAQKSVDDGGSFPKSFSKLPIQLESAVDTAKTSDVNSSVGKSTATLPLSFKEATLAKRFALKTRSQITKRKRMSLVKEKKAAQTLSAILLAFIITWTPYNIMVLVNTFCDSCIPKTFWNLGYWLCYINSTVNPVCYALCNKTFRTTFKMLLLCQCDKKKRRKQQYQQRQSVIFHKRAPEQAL
Chain of human adrenergic β2 receptor (P07550 whole entry): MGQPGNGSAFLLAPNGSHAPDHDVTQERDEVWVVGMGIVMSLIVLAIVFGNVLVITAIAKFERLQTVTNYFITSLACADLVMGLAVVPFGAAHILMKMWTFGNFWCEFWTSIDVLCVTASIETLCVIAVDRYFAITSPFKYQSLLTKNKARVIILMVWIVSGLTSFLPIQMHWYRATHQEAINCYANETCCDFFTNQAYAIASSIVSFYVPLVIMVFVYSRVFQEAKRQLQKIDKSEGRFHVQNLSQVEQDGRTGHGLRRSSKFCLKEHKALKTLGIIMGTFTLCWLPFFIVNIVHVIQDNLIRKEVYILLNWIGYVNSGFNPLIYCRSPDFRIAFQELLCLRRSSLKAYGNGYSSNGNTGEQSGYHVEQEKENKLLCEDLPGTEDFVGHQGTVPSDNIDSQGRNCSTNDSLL

## O=c1ccc2c([C@@H](O)CNCCCCCCCCCN3CCC(Cn4cnc(C(O)(c5ccccc5)c5ccccc5)n4)CC3)ccc(O)c2[nH]1 [Example 4, 8-hydroxy-5-[(1R)-1-hydroxy-2-({9-[4-({3-[hydroxy(diphenyl)methyl]-1H-1,2,4-triazol-1-yl}methyl)piperdin-1-yl]nonyl}amino)ethyl]quinolin-2(1H)-one]
[1]
  Ki: 0.505 nM
[2]
  Emax: 90%
  EC50: 13 nM

## O=c1ccc2c([C@@H](O)CNCCCCCCCCCN3CCC(Cn4cnc(C(O)(c5ccccc5)C5CCCCC5)n4)CC3)ccc(O)c2[nH]1 (stereo partly drawn) [Example 3, 5-[(1R)-2-({9-[4-({3-[cyclohexyl(hydroxy)phenylmethyl]-1H-1,2,4-triazol-1-yl}methyl)piperdin-1-yl]nonyl}amino)-1-hydroxyethyl]-8-hydroxyquinolin-2(1H)-one]
[1]
  Ki: 0.924 nM
[2]
  Emax: 91%
  EC50: 20.6 nM

## O=c1ccc2c([C@@H](O)CNCCc3ccc(CCN4CCC(Cn5cnc([C@](O)(c6ccccc6)C6CCCCC6)n5)CC4)cc3)ccc(O)c2[nH]1 [Example 2, 5-[(1R)-2-{[2-(4-{2-[4-({3-[(R)-cyclohexyl(hydroxy)phenylmethyl]-1H-1,2,4-triazol-1-yl}methyl)piperdin-1-yl]ethyl}phenyl)ethyl]amino}-1-hydroxyethyl]-8-hydroxyquinolin-2(1H)-one]
[1]
  Ki: 0.153 nM
[2]
  Emax: 106%
  EC50: 21.6 nM

## O=c1ccc2c([C@@H](O)CNCCCCCCCCCN3CCC(Cn4cnc([C@](O)(c5ccccc5)C5CCCCC5)n4)CC3)ccc(O)c2[nH]1 [Example 1, 5-[(1R)-2-({9-[4-({3-[(R)-cyclohexyl(hydroxy)phenylmethyl]-1H-1,2,4-triazol-1-yl}methyl)piperidin-1-yl]nonyl}amino)-1-hydroxyethyl]-8-hydroxyquinolin-2(1H)-one]
[1]
  Ki: 0.57 nM
[2]
  Emax: 103%
  EC50: 14 nM

## O=c1ccc2c([C@@H](O)CNCCc3ccc(CCN4CCC(Cn5cnc(C(O)(c6ccccc6)c6ccccc6)n5)CC4)cc3)ccc(O)c2[nH]1 [Example 5, 8-hydroxy-5-[(1R)-1-hydroxy-2-{[2-(4-{2-[4-({3-[hydroxy(diphenyl)methyl]-1H-1,2,4-triazol-1-yl}methyl)piperidin-1-yl]ethyl}phenyl)ethyl]amino}ethyl]quinolin-2(1H)-one]
[1]
  Ki: 2.49 nM
[2]
  Emax: 95%
  EC50: 116 nM
